In ChEMBL document CHEMBL1201862, “PubChem BioAssay data set” (2004):
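Where inhibition never reached the appropriate level, the endpoint shown equals the highest concentration tested. Otherwise, values were interpolated linearly from a five-concentration, 48-hour dose response in 96-well plates. The concentration for 50% growth inhibition is given as GI50.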 Activity calls are given as the source filed them. Cut-off read from the data, not from the text of the source: active = GI50 up to about 1.1 µM and inactive = higher.

Experiments:
Assay in all cases: NCI-60 cell line screen, 48 h
OVCAR-8 = test system: OVCAR-8
RPMI-8226 = test system: RPMI-8226
SF-268 = test system: SF-268
SN12C = test system: SN12C
ACHN = test system: ACHN
BT-549 = test system: BT-549
SR = test system: SR
SK-MEL-5 = test system: SK-MEL-5
CAKI-1 = test system: CAKI-1
OVCAR-4 = test system: OVCAR-4
HT-29 = test system: HT-29
NCI-H522 = test system: NCI-H522
UACC-62 = test system: UACC-62
KM12 = test system: KM12
A549 = test system: A549
IGROV-1 = test system: IGROV-1
T47D = test system: T47D
NCI-H23 = test system: NCI-H23
Malme-3M = test system: Malme-3M
CCRF-CEM = test system: CCRF-CEM

SMILES | GI50 (OVCAR-8) | GI50 (RPMI-8226) | GI50 (SF-268) | GI50 (SN12C) | GI50 (ACHN) | GI50 (BT-549) | GI50 (SR) | GI50 (SK-MEL-5) | GI50 (CAKI-1) | GI50 (OVCAR-4) | GI50 (HT-29) | GI50 (NCI-H522) | GI50 (UACC-62) | GI50 (KM12) | GI50 (A549) | GI50 (IGROV-1) | GI50 (T47D) | GI50 (NCI-H23) | GI50 (Malme-3M) | GI50 (CCRF-CEM)
OC1(c2ccccc2)c2ccccc2N=C2NCCN21 (configuration not stated) | > 100 µM (inactive) | 11.1 µM (inactive) | > 100 µM (inactive) | 82.8 µM (inactive) | > 100 µM (inactive) | > 100 µM (inactive) | 0.192 µM (active) | 37.6 µM (inactive) | 45.4 µM (inactive) | > 100 µM (inactive) | 74.6 µM (inactive) | > 100 µM (inactive) | 51.4 µM (inactive) | > 100 µM (inactive) | > 100 µM (inactive) | > 100 µM (inactive) | 65.6 µM (inactive) | 60 µM (inactive) |  | 
c1ccc(-c2nn(-c3ccccc3)[n+](-c3ccccc3)n2)cc1 [TETRAZOLIUM RED] | 49.9 µM (inactive) |  | 14.5 µM (inactive) | 9.59 µM (inactive) | > 78 µM (inactive) | > 50.5 µM (inactive) | 3.37 µM (inactive) | 3.49 µM (inactive) | > 100 µM (inactive) | 2.01 µM (inactive) | 18.6 µM (inactive) | > 37.9 µM (inactive) | 13.8 µM (inactive) | 11.3 µM (inactive) | 23.9 µM (inactive) | 3.1 µM (inactive) | > 100 µM (inactive) | 7.29 µM (inactive) | 0.394 µM (active) | 0.718 µM (active)
O=S(=O)(O)c1ccc(-c2nnc(-c3ccccn3)nc2-c2ccc(S(=O)(=O)O)o2)o1 | > 100 µM (inactive) | > 100 µM (inactive) | > 100 µM (inactive) | > 100 µM (inactive) | > 100 µM (inactive) | > 100 µM (inactive) | > 100 µM (inactive) | > 100 µM (inactive) | > 100 µM (inactive) | > 100 µM (inactive) | > 100 µM (inactive) | > 100 µM (inactive) | > 100 µM (inactive) | > 100 µM (inactive) | > 100 µM (inactive) | > 100 µM (inactive) | > 100 µM (inactive) | > 100 µM (inactive) | > 100 µM (inactive) | 
Clc1ccccc1-c1nnc2c(-c3ccccc3)nc3ccccc3n12 |  | > 100 µM (inactive) | > 100 µM (inactive) | > 100 µM (inactive) | > 100 µM (inactive) | > 100 µM (inactive) | 45.2 µM (inactive) | > 100 µM (inactive) |  | > 100 µM (inactive) | 47.3 µM (inactive) |  | > 100 µM (inactive) | > 100 µM (inactive) | > 100 µM (inactive) | > 100 µM (inactive) | 5.93 µM (inactive) | > 100 µM (inactive) | 61.7 µM (inactive) | 26 µM (inactive)
CC(=O)/C(=C\I)c1ccccc1 | 1.82 µM (inactive) | 2.03 µM (inactive) | 7.91 µM (inactive) | 1.99 µM (inactive) |  | 1.83 µM (inactive) | 1.49 µM (inactive) |  |  |  | 0.995 µM (active) |  | 1.77 µM (inactive) | 3.57 µM (inactive) | 15.7 µM (inactive) | 2.1 µM (inactive) | 1.69 µM (inactive) | 2.23 µM (inactive) | 1.67 µM (inactive) | 1.97 µM (inactive)
O=C(O)CN(CCNC(=O)OCC1c2ccccc2-c2ccccc21)CCNC(=O)OCC1c2ccccc2-c2ccccc21 | 20.1 µM (inactive) | 25.4 µM (inactive) | 19 µM (inactive) | 25 µM (inactive) | 20.6 µM (inactive) | 27.2 µM (inactive) | 24.9 µM (inactive) | 19.6 µM (inactive) |  | 27.1 µM (inactive) | 17.5 µM (inactive) | 17.2 µM (inactive) | 23.7 µM (inactive) | 18.6 µM (inactive) | 23.3 µM (inactive) | 20.6 µM (inactive) | 20.1 µM (inactive) | 24.8 µM (inactive) | 22.3 µM (inactive) | 24.5 µM (inactive)
COc1ccc2c(c1)C1=NCCN(C)c3ccc([N+](=O)[O-])c(c31)N2 | 0.9 µM (active) |  | 0.731 µM (active) | 0.796 µM (active) | 0.465 µM (active) | 2.91 µM (inactive) | 2.88 µM (inactive) | 1.45 µM (inactive) | 0.698 µM (active) | 0.685 µM (active) | 0.573 µM (active) | 0.635 µM (active) | 1.1 µM (active) | 1.21 µM (inactive) | 0.525 µM (active) | 1.41 µM (inactive) | 2.66 µM (inactive) | 0.891 µM (active) | 1.04 µM (active) | 5.73 µM (inactive)
CN(Cc1cnc2nc(N)nc(N)c2n1)c1ccc(C(=O)NC2CCCCC2)cc1 | 14.2 µM (inactive) | > 100 µM (inactive) | 19 µM (inactive) | 75 µM (inactive) | 23.3 µM (inactive) | 23.2 µM (inactive) | 33.2 µM (inactive) | 12.3 µM (inactive) | 63.7 µM (inactive) |  | 16.2 µM (inactive) |  | 8.2 µM (inactive) | 26.9 µM (inactive) |  | 13.3 µM (inactive) | 87.1 µM (inactive) | 36.1 µM (inactive) | 20.9 µM (inactive) | 36.7 µM (inactive)
COc1ccc(C2SCC(=O)N2c2ccc(-n3c(-c4ccccc4)nc4ccccc4c3=O)cc2)cc1 (configuration not stated) | > 100 µM (inactive) | > 100 µM (inactive) | > 100 µM (inactive) | > 100 µM (inactive) | > 100 µM (inactive) | > 100 µM (inactive) | 45 µM (inactive) | > 100 µM (inactive) | > 100 µM (inactive) | > 100 µM (inactive) | > 100 µM (inactive) | 36.4 µM (inactive) | 17.8 µM (inactive) | 90.8 µM (inactive) | > 100 µM (inactive) | > 100 µM (inactive) | 21.6 µM (inactive) | > 100 µM (inactive) |  | > 100 µM (inactive)
C1=Nc2sc3c(c2C2=NCCN12)CCCC3 | 17.1 µM (inactive) | 20.8 µM (inactive) | 20.6 µM (inactive) |  | 17.1 µM (inactive) | 15.2 µM (inactive) | 21.2 µM (inactive) | 18 µM (inactive) | 17.4 µM (inactive) | 20.6 µM (inactive) | 18.1 µM (inactive) | 15.9 µM (inactive) | 15.4 µM (inactive) | 17.2 µM (inactive) |  | 15.4 µM (inactive) | 17.7 µM (inactive) | 15.6 µM (inactive) | 16.9 µM (inactive) | 
CC(C)CC1c2[nH]c3ccccc3c2C[C@H]2C(=O)NC(CCCCNC(=O)OC(C)(C)C)C(=O)N12 (some centres not stated) | 34.2 µM (inactive) | 18.7 µM (inactive) | 21.4 µM (inactive) | 33.9 µM (inactive) | 29 µM (inactive) | 25.2 µM (inactive) | 11.9 µM (inactive) | 33.2 µM (inactive) | 37.3 µM (inactive) | 37.7 µM (inactive) | 23.5 µM (inactive) | 19.5 µM (inactive) | 27 µM (inactive) | 17 µM (inactive) | 33.7 µM (inactive) | 37.1 µM (inactive) | 0.449 µM (active) | 33 µM (inactive) | 31.6 µM (inactive) | 
CC1=NN(c2nc(N)nc(COCc3nc(N)nc(N4N=C(C)CC4(C)C)n3)n2)C(C)(C)C1 | > 100 µM (inactive) | > 100 µM (inactive) | > 100 µM (inactive) | > 100 µM (inactive) | > 100 µM (inactive) | > 100 µM (inactive) | > 100 µM (inactive) | > 100 µM (inactive) | > 100 µM (inactive) | > 100 µM (inactive) | > 100 µM (inactive) | > 100 µM (inactive) | > 100 µM (inactive) | > 100 µM (inactive) | > 100 µM (inactive) | > 100 µM (inactive) | > 100 µM (inactive) | > 100 µM (inactive) |  | > 100 µM (inactive)
COc1ccc(C2CCc3nc4nc(N)nc(N)c4cc3C2)cc1 (configuration not stated) | 10.2 µM (inactive) | 32.6 µM (inactive) | 15.8 µM (inactive) | 6.7 µM (inactive) | 6.64 µM (inactive) | 25.5 µM (inactive) | 24.3 µM (inactive) | 62.5 µM (inactive) | 54.1 µM (inactive) | 22.8 µM (inactive) | 29.2 µM (inactive) | 25.4 µM (inactive) | 31.5 µM (inactive) | 30.8 µM (inactive) | 39.3 µM (inactive) | 9.68 µM (inactive) | 21 µM (inactive) |  | 24.5 µM (inactive) | 
c1ccc(C2SCc3nc4cc5ccccc5cc4n32)cc1 (configuration not stated) | > 100 µM (inactive) | > 100 µM (inactive) | > 100 µM (inactive) | > 100 µM (inactive) | > 100 µM (inactive) | > 100 µM (inactive) | > 100 µM (inactive) |  | > 100 µM (inactive) | 89.3 µM (inactive) | > 100 µM (inactive) |  | > 100 µM (inactive) | > 100 µM (inactive) | > 100 µM (inactive) | > 100 µM (inactive) | > 100 µM (inactive) | > 100 µM (inactive) | > 100 µM (inactive) | > 100 µM (inactive)
O=C(O)c1ccc(-c2nc3cc(Cl)ccc3[nH]2)cc1 | > 100 µM (inactive) | > 100 µM (inactive) |  | > 100 µM (inactive) |  | > 100 µM (inactive) | > 100 µM (inactive) | > 100 µM (inactive) | > 100 µM (inactive) |  | > 100 µM (inactive) | > 100 µM (inactive) |  | > 100 µM (inactive) | > 100 µM (inactive) | > 100 µM (inactive) | > 100 µM (inactive) |  |  | > 100 µM (inactive)
